Experimental data reported in a compilation of properties of binary mixtures (doi:10.1016/j.molliq.2014.07.002).

Assay: xn = mol fraction of the nth substance listed
Conditions: 101 kPa

CN1CCCC1=O + CCCC[n+]1ccn(C)c1.[Cl-]
x1 = 1
Conditions | speed of sound [m/s]
308.15 K | 1528
313.15 K | 1520

CN1CCCC1=O + CC[n+]1ccn(C)c1.COS(=O)(=O)[O-]
x1 = 1
Conditions | speed of sound [m/s] | viscosity [mPa·s]
298.15 K | 1572 | 1.66
303.15 K | 1552 | 1.49
308.15 K | 1528 | 1.39

CCCC[n+]1ccn(C)c1.[Cl-] + CN1CCCC1=O
speed of sound [m/s]
Conditions | 298.15 K | 303.15 K | 308.15 K | 313.15 K
x1 = 0.0138 | 1575 | 1555 | 1531 | 1527
x2 = 0 | 1874 | 1865 | 1855 | 1827
x2 = 0.01 | – | 1860 | 1848 | –
x2 = 0.0396 | 1853 | 1844 | – | –
x2 = 0.0814 | 1837 | 1829 | 1819 | 1796
x2 = 0.1986 | 1800 | 1790 | 1779 | 1760
x2 = 0.3683 | 1755 | – | – | –
x2 = 0.5125 | 1723 | – | 1688 | 1674
x2 = 0.6367 | – | 1674 | 1654 | –
x2 = 0.704 | 1670 | 1655 | – | 1623
x2 = 0.7466 | 1656 | – | 1621 | 1611
x2 = 0.8415 | 1625 | 1609 | – | –
x2 = 0.8939 | 1606 | 1588 | 1568 | 1559
x2 = 0.9254 | – | – | 1556 | 1552
x2 = 0.9721 | 1579 | 1562 | 1539 | 1536

CC[n+]1ccn(C)c1.COS(=O)(=O)[O-] + CN1CCCC1=O
Conditions | speed of sound, 298.15 K [m/s] | speed of sound, 303.15 K [m/s] | speed of sound, 308.15 K [m/s] | speed of sound, 313.15 K [m/s] | viscosity, 298.15 K [mPa·s] | viscosity, 303.15 K [mPa·s] | viscosity, 308.15 K [mPa·s] | viscosity, 313.15 K [mPa·s]
x1 = 0.0115 | 1579 | 1557 | – | 1518 | 2.22 | 1.88 | – | 1.6
x2 = 0 | 1730 | 1718 | 1707 | 1694 | 84 | 69 | 56.7 | 47.6
x2 = 0.0419 | 1724 | 1708 | 1692 | 1679 | 77 | 63 | 51.3 | 42.8
x2 = 0.0861 | 1718 | 1702 | 1685 | – | 69 | 56 | 45.9 | –
x2 = 0.2085 | 1711 | 1688 | 1663 | 1644 | 53.3 | 42.1 | 33.6 | 27.7
x2 = 0.3825 | 1700 | – | 1651 | 1632 | 35.9 | – | 21.8 | 17.7
x2 = 0.5291 | 1684 | – | 1630 | 1614 | 23.3 | – | 14 | 11.5
x2 = 0.6518 | 1663 | 1638 | – | 1593 | 14.6 | 10.8 | – | 8.2
x2 = 0.718 | 1649 | 1622 | – | 1579 | 10.5 | 8.9 | – | 6.07
x2 = 0.757 | 1639 | 1610 | 1582 | 1566 | 9.2 | 7.3 | 5.82 | 5.22
x2 = 0.8502 | – | 1589 | 1560 | 1545 | – | 4.04 | 3.61 | 3.27
x2 = 0.8983 | 1604 | 1577 | 1544 | 1528 | 4.01 | 3.11 | 2.8 | 2.56
x2 = 0.9298 | 1596 | – | 1536 | 1524 | 3.43 | – | 2.22 | 2.11
x2 = 0.9743 | 1582 | 1560 | 1534 | 1522 | 3.11 | 2.05 | 1.86 | 1.73
